Results on nine compounds are retold here after ChEMBL document CHEMBL1201862, “PubChem BioAssay data set” (2004).

Test systems include 786-0; CAKI-1; CCRF-CEM; HL-60; K562; MCF7; MOLT-4; Malme-3M; NCI-H226; OVCAR-4; OVCAR-5; RPMI-8226; RXF 393; SK-MEL-2; SK-MEL-5; SR; TK-10; UACC-257; UACC-62; DU-145.
What all share (experiment): inhibition of tumour cell growth, NCI panel, 48 h

Each structure is given as a SMILES string.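 Each compound was tested at five concentrations against cells in 96-well plates for 48 hours. At the GI50, growth is halved.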 Calls of active or inactive are those of the source. No stated cut-off is given here; in the data, active = GI50 up to about 1.1 µM and inactive = higher. Bounds are passed on as bounds.

As for `C/C(=N\N=C(N)N)c1c(C(=O)OCCCCCCOC(=O)c2nc3sccn3c2/C(C)=N/N=C(N)N)nc2sccn12`, the GI50 in the assay on 786-0 was 41.9 µM (inactive); with CAKI-1 it was > 100 µM (inactive); with CCRF-CEM, 20.5 µM (inactive); in the assay with HL-60, 32.1 µM (inactive); in the assay on K562 it was 19.5 µM (inactive); with MCF7 it was 47.4 µM (inactive). Further, the GI50 with MOLT-4 was 32.2 µM (inactive); in the assay with Malme-3M it was 43.4 µM (inactive); in the assay on NCI-H226 it was > 100 µM (inactive); in the assay on OVCAR-4, > 100 µM (inactive); in the assay on OVCAR-5, > 100 µM (inactive); with RPMI-8226, 85.3 µM (inactive). Besides, the GI50 with RXF 393 is > 100 µM (inactive); in the assay with SK-MEL-2, > 100 µM (inactive); in the assay with SK-MEL-5 it was 99.1 µM (inactive); with SR, 18.3 µM (inactive); with TK-10, 22.8 µM (inactive); in the assay on UACC-257, > 100 µM (inactive). Moreover, the GI50 in the assay on UACC-62 was > 100 µM (inactive).

In the case of `CC(=O)Oc1cc2c(cc1OC(C)=O)OCC(c1ccc(C)cc1)C2` (centres undefined), the GI50 in the assay on CAKI-1 is 21.7 µM (inactive); in the assay on CCRF-CEM it was 4.07 µM (inactive); in the assay on HL-60, 2.61 µM (inactive); in the assay with K562, 17.1 µM (inactive); with MCF7, 24.9 µM (inactive); in the assay on MOLT-4 it was 7.19 µM (inactive). The GI50 in the assay with Malme-3M is 19 µM (inactive); in the assay with NCI-H226, 27.1 µM (inactive); in the assay on OVCAR-4 it was 13 µM (inactive); in the assay with OVCAR-5, 33.5 µM (inactive); in the assay on RPMI-8226 it was 11.6 µM (inactive); in the assay on RXF 393 it was 17.5 µM (inactive). The GI50 in the assay on SK-MEL-2 was 20 µM (inactive); in the assay on SK-MEL-5 it was 6.12 µM (inactive); with UACC-257 it was 21.4 µM (inactive); with UACC-62, 11.7 µM (inactive).

Take `c1cc2c3c(c1)c1cc4c(cc1c[n+]3CC2)OCO4` [ANHYDROLYCORINIUM CHLORIDE]: the GI50 is 12.5 µM (inactive) in the assay with CAKI-1; 3.35 µM (inactive) with CCRF-CEM; 6.3 µM (inactive) with HL-60; 4.47 µM (inactive) in the assay on K562; 6.25 µM (inactive) in the assay on MCF7; 1.25 µM (inactive) with MOLT-4. Moreover, the GI50 in the assay on Malme-3M was 0.871 µM (active); in the assay on NCI-H226 it was 1.25 µM (inactive); in the assay with OVCAR-4 it was 0.383 µM (active); in the assay with OVCAR-5, 2.85 µM (inactive); in the assay on RPMI-8226, 2.14 µM (inactive); in the assay on RXF 393, 6.12 µM (inactive). Also, the GI50 with SK-MEL-2 was 4.26 µM (inactive); in the assay on SK-MEL-5, 3.79 µM (inactive); in the assay on UACC-257, 5.28 µM (inactive); in the assay with UACC-62, 5.85 µM (inactive).

Consider `C[C@]12C=CC(=O)C=C1CC[C@@H]1[C@@H]2CC[C@@]2(C)[C@H]1CC[C@]2(O)C(N)=O`, for which the GI50 in the assay with 786-0, in the assay with CCRF-CEM, in the assay with DU-145, in the assay with HL-60, with K562 and with MOLT-4 was > 100 µM (inactive) in each case. The GI50 in the assay on Malme-3M, in the assay on NCI-H226, with OVCAR-4, in the assay with OVCAR-5, with RPMI-8226 and with RXF 393 was > 100 µM (inactive) each time. Also, the GI50 is > 100 µM (inactive) with SK-MEL-2; > 100 µM (inactive) in the assay on SK-MEL-5; > 100 µM (inactive) in the assay with SR; > 100 µM (inactive) in the assay on TK-10; 50.8 µM (inactive) with UACC-257; > 100 µM (inactive) with UACC-62.

For the compound `COc1cc(/C=N/n2c(Cc3ccc(Cl)cc3)n[nH]c2=O)cc(OC)c1OC`, the GI50 in the assay on 786-0, in the assay on CAKI-1, in the assay on CCRF-CEM, in the assay on K562, with MCF7 and with MOLT-4 was > 100 µM (inactive) in each case. The GI50 in the assay on Malme-3M, in the assay with NCI-H226, in the assay with OVCAR-4, in the assay on OVCAR-5, with RXF 393 and in the assay with SK-MEL-2 was > 100 µM (inactive) in each case. Also, the GI50 is 37.5 µM (inactive) with UACC-257 and > 100 µM (inactive) in the assay on UACC-62.

With `O=P(NCCCO)(OCc1ccccc1)N(CCCl)CCCl` (centres undefined), the GI50 in the assay on CAKI-1, with CCRF-CEM, with HL-60, in the assay with K562, with MCF7 and in the assay on MOLT-4 was > 100 µM (inactive) throughout. Further, the GI50 in the assay on Malme-3M, in the assay on NCI-H226, in the assay on OVCAR-4, with OVCAR-5, in the assay with RXF 393 and in the assay on SK-MEL-2 was > 100 µM (inactive) in each case. The GI50 in the assay on SK-MEL-5, in the assay on UACC-257 and in the assay with UACC-62 was > 100 µM (inactive) in each case.

In the case of `CC(C)(C)OC(=O)C1/C(=C/CO)CN1C(=O)OC(C)(C)C` (centres undefined), the GI50 in the assay with 786-0 was > 100 µM (inactive); in the assay on CAKI-1, > 100 µM (inactive); in the assay on CCRF-CEM it was 76.2 µM (inactive); in the assay on HL-60, > 100 µM (inactive); with K562, > 100 µM (inactive); with MCF7, > 100 µM (inactive). The GI50 with MOLT-4 was 57.3 µM (inactive); in the assay on Malme-3M, > 100 µM (inactive); with OVCAR-4, 63.7 µM (inactive); in the assay with OVCAR-5 it was > 100 µM (inactive); with RPMI-8226, > 100 µM (inactive); in the assay on SK-MEL-2 it was > 100 µM (inactive). Besides, the GI50 is > 100 µM (inactive) in the assay on SK-MEL-5; 90.8 µM (inactive) in the assay with SR; > 100 µM (inactive) in the assay with TK-10; > 100 µM (inactive) with UACC-257; > 100 µM (inactive) in the assay with UACC-62.

As to `N=C(N)SCc1cccc([N+](=O)[O-])c1`, the GI50 in the assay with CAKI-1 is 24.4 µM (inactive); in the assay on CCRF-CEM, 27.7 µM (inactive); in the assay with HL-60 it was 18.8 µM (inactive); in the assay with K562, 22.1 µM (inactive); in the assay with MCF7, 28.4 µM (inactive); with MOLT-4, 32.7 µM (inactive). Moreover, the GI50 in the assay with Malme-3M is 34.2 µM (inactive); with NCI-H226, 24.3 µM (inactive); in the assay on OVCAR-4, 30.3 µM (inactive); in the assay on OVCAR-5, 48.2 µM (inactive); in the assay with RPMI-8226, 22.8 µM (inactive); with RXF 393, 24.8 µM (inactive). The GI50 was 24 µM (inactive) with SK-MEL-2, 32 µM (inactive) in the assay on SK-MEL-5, 27.2 µM (inactive) in the assay on UACC-257 and 39.5 µM (inactive) in the assay on UACC-62.

As for `Cc1ccccc1NC(=O)c1c(C)oc2c1C(=O)c1ccccc1C2=O`, the GI50 is 27 µM (inactive) in the assay on 786-0; > 80.7 µM (inactive) in the assay on CAKI-1; 19.4 µM (inactive) with CCRF-CEM; 19.8 µM (inactive) with HL-60; 22.4 µM (inactive) in the assay on K562; 20.1 µM (inactive) with MOLT-4. In addition, the GI50 is 10.2 µM (inactive) in the assay with Malme-3M; > 38.7 µM (inactive) with NCI-H226; 2.09 µM (inactive) in the assay on OVCAR-4; > 100 µM (inactive) in the assay on OVCAR-5; 22.6 µM (inactive) with RPMI-8226; > 100 µM (inactive) in the assay on RXF 393. For the same compound, the GI50 is 30.5 µM (inactive) with SK-MEL-2; 13.2 µM (inactive) in the assay on SK-MEL-5; 26.1 µM (inactive) with SR; > 100 µM (inactive) with TK-10; 21.4 µM (inactive) in the assay on UACC-257; 22 µM (inactive) in the assay with UACC-62.
